By inhibition is commonly meant the drop in the measured response relative to a control, in per cent. Low readings indicate a response near the control, high ones a response far below the control.

What all share (assay): biochemical
One test addresses DOT1L (Homo sapiens, UniProt Q8TEK3). Also noted: protein methyltransferase selectivity panel, enzyme activity relative to DMSO controls, single concentration in duplicate. The following applies: Substrate:=Nucleosomes. Here is the method:
(§1) We next assessed selectivity of MS67 against 22 protein methyltransferases (table S2) and a broad panel of common drug targets including 45 kinases (table S3) and 44 G protein–coupled receptors (GPCR), ion channels, and transporters (table S4). […] We subsequently determined that MS67 had moderate binding affinity (Ki = 1.0 ± 0.8 μM) to Sigma 2 receptor (fig. S10).

In another test the target is T1, SET7/9 (Homo sapiens, UniProt Q8WTS6).
T1 construct: gene SETD7
T1 sequence (Q8WTS6 1-366): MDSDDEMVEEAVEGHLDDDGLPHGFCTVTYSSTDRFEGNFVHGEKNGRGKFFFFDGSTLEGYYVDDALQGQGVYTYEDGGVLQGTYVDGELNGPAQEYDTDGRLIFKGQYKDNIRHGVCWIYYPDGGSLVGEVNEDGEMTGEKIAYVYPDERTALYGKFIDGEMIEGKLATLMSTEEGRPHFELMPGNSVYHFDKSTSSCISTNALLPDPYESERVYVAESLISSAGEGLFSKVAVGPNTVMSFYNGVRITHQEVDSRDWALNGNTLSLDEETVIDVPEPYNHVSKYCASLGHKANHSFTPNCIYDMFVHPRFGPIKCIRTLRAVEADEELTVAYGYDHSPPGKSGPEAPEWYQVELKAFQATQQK
Also noted: protein methyltransferase selectivity panel, enzyme activity relative to DMSO controls, single concentration in duplicate. The following applies: Substrate:=Core Histone. The protocol:
as §1

A further test concerns the target T2, NSD2 (Homo sapiens, UniProt O96028).
T2 sequence (O96028 1-1365): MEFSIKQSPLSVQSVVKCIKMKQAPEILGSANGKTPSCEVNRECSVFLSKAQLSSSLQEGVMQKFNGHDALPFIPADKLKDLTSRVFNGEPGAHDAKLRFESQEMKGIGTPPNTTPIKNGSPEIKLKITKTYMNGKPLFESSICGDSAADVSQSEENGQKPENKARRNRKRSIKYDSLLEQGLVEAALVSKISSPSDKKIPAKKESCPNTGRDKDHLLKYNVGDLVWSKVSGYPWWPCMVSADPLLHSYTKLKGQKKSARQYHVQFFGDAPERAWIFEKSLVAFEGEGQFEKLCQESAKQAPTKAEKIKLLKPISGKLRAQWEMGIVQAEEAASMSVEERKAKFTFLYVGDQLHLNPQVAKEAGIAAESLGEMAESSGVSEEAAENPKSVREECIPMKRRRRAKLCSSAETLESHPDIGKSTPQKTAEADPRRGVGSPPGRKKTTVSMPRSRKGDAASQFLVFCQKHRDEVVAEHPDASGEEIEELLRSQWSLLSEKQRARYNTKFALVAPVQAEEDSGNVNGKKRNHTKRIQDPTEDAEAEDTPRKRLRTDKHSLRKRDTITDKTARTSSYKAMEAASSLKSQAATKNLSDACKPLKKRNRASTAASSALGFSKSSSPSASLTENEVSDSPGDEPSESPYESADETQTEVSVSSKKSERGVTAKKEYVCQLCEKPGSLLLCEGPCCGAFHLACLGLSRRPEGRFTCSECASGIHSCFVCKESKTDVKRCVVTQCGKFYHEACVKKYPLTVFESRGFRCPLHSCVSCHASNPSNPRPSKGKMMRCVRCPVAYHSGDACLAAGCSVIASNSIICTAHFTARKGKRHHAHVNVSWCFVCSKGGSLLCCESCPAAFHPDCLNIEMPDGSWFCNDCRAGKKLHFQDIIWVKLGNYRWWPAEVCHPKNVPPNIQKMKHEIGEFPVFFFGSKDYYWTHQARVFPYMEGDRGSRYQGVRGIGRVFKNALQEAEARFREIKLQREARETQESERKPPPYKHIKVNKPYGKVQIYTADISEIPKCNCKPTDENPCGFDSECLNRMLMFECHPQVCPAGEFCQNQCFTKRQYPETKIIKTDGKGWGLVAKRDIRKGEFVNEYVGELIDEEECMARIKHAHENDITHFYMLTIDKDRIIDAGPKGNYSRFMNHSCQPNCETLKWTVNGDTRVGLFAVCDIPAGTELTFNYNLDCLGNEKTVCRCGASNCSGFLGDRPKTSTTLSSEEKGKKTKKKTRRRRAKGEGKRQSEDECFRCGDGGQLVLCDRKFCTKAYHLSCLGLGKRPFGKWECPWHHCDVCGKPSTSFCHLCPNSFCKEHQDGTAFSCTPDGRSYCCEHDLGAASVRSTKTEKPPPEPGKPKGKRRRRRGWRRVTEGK
Also noted: protein methyltransferase selectivity panel, enzyme activity relative to DMSO controls, single concentration in duplicate. As to conditions: Substrate:=Nucleosomes. The protocol:
as §1

Another test deals with T3, Pim-2 (Homo sapiens, UniProt Q9P1W9).
T3 construct: gene PIM2
T3 sequence (Q9P1W9 whole entry): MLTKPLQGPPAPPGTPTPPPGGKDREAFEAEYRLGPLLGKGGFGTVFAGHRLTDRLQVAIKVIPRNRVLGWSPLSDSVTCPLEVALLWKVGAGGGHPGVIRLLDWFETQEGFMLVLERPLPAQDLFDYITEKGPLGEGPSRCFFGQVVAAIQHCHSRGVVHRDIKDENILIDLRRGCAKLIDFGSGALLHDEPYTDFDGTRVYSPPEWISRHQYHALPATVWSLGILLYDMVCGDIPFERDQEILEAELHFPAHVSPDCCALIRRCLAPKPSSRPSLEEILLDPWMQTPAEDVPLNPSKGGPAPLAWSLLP
Set-up: kinase selectivity panel, single concentration, duplicate. The protocol: as §1

The target of a further test is T4, PKBα (Homo sapiens, UniProt P31749).
T4 construct: gene AKT1
T4 sequence (P31749 whole entry): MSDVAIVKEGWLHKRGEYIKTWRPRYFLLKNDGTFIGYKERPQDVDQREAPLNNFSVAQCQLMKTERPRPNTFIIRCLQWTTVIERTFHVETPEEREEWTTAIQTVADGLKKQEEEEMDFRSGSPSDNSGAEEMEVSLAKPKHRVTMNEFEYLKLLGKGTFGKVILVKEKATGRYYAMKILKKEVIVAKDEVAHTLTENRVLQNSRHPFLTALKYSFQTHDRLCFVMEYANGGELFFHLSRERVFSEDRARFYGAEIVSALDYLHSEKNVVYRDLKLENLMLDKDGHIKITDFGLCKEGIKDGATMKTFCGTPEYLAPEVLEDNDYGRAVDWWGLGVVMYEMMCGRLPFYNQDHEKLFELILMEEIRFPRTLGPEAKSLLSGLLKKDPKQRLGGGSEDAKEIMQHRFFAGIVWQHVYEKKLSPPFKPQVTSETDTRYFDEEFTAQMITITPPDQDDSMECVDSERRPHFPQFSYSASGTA
Set-up: kinase selectivity panel, single concentration, duplicate. Here is the method: as §1

The next test deals with CDK2/cyclinA (Homo sapiens, UniProt P24941). Also noted: kinase selectivity panel, single concentration, duplicate. The protocol: as §1
In a further test the target is PAK4 (Homo sapiens, UniProt O96013). Set-up: kinase selectivity panel, single concentration, duplicate. Here is the method:
as §1

The target in the next test is T5, TRKA (Homo sapiens, UniProt P04629).
T5 construct: gene NTRK1
T5 sequence (P04629 whole entry): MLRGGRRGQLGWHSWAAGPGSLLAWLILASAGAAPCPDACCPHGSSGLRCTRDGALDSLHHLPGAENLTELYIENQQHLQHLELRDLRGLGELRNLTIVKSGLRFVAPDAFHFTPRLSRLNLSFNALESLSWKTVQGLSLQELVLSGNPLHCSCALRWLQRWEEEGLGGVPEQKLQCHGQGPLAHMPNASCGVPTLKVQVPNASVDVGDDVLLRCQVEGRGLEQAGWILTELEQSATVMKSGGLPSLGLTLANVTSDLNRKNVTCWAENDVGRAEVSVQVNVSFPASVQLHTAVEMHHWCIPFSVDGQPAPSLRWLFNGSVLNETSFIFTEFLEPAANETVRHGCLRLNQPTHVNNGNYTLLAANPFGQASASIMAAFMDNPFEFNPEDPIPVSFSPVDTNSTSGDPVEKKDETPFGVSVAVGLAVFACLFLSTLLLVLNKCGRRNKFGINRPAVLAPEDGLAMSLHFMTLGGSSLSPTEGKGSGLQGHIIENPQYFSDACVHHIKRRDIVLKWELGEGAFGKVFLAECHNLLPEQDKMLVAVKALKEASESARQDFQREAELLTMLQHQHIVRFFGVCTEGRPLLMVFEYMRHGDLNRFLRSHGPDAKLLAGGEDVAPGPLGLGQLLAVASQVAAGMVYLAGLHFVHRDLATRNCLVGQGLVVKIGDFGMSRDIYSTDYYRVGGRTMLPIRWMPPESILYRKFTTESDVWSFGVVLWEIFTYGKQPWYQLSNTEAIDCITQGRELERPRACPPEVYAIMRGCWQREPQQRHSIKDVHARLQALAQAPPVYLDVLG
Also noted: kinase selectivity panel, single concentration, duplicate. Here is the method:
as §1

The target of a further test is T6, IKKα (Homo sapiens, UniProt O15111).
T6 construct: gene CHUK
T6 sequence (O15111 whole entry): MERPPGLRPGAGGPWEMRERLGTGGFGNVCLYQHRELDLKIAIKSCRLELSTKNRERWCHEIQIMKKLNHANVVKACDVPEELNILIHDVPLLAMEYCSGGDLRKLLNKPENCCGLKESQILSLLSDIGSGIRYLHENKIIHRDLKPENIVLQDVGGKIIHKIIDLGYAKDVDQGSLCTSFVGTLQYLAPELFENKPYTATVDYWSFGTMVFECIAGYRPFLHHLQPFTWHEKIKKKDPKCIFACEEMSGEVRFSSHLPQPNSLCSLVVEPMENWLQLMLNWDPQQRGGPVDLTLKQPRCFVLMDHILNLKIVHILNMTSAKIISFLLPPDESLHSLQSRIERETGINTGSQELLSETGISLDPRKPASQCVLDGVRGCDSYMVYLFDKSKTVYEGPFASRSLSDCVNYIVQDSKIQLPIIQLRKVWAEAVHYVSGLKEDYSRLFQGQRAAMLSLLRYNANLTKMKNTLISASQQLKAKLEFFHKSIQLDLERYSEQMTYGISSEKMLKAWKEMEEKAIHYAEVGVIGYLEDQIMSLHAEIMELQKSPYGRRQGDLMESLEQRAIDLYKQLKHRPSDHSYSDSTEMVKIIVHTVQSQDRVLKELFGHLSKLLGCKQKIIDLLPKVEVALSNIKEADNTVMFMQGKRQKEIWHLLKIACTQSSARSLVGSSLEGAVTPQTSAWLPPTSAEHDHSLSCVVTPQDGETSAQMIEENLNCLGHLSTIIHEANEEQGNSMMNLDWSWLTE
Set-up: kinase selectivity panel, single concentration, duplicate. The protocol:
as §1

A further test concerns the target T7, SAPK2a (Homo sapiens, UniProt Q16539).
T7 construct: gene MAPK14
Also noted: kinase selectivity panel, single concentration, duplicate. Here is the method:
as §1

The target of a further test is CDK1/cyclinB (Homo sapiens, UniProt P06493). Also noted: kinase selectivity panel, single concentration, duplicate. Here is the method: as §1
Setting [1] is: read-out: Enzyme % Activity (relative to DMSO controls) / MS67 / 10 / Data 1:
Where [2] appears, read: read-out: Enzyme % Activity (relative to DMSO controls) / MS67 / 10 / Data 2:

Where two headings read alike, the source gives them in different places.

Sequence of DOT1L (Q8TEK3 whole entry): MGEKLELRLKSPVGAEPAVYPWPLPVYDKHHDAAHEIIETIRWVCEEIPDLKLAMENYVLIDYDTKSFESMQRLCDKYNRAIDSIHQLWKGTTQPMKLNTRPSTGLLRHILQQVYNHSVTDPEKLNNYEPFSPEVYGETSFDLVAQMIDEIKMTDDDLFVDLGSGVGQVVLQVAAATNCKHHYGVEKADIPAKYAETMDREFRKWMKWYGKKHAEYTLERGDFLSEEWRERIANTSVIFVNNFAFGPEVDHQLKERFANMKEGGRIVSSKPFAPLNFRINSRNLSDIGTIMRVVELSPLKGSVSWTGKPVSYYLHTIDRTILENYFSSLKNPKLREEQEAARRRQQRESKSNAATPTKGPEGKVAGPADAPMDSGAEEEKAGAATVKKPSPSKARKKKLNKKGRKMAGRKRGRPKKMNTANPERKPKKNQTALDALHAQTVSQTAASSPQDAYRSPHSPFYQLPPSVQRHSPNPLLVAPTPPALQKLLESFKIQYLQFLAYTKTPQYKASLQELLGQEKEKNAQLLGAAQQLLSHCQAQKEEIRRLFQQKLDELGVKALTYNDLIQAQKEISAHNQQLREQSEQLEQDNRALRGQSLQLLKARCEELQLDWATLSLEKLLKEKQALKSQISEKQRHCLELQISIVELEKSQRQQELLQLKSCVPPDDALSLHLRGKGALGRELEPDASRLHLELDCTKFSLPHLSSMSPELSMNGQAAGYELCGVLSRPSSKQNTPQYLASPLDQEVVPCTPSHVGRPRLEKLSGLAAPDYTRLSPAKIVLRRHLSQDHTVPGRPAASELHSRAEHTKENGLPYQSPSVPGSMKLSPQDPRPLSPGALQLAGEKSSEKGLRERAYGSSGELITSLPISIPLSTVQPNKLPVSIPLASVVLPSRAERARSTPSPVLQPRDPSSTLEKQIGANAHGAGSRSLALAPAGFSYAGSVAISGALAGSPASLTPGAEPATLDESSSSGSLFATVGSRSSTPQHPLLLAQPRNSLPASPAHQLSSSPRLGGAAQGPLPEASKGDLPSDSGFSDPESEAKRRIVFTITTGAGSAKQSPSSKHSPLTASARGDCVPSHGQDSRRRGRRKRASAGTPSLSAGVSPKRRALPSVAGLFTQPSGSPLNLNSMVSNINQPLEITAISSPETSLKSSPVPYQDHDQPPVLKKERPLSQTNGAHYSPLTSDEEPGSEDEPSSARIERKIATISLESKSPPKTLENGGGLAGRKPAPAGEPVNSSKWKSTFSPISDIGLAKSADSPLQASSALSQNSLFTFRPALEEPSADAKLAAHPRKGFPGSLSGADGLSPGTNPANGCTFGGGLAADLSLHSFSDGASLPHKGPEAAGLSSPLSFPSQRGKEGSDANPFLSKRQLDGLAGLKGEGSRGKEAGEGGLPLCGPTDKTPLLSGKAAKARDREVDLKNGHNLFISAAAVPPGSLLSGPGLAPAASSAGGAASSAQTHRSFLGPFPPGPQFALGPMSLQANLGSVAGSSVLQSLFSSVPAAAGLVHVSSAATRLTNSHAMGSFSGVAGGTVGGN
Sequence of PAK4 (O96013 whole entry): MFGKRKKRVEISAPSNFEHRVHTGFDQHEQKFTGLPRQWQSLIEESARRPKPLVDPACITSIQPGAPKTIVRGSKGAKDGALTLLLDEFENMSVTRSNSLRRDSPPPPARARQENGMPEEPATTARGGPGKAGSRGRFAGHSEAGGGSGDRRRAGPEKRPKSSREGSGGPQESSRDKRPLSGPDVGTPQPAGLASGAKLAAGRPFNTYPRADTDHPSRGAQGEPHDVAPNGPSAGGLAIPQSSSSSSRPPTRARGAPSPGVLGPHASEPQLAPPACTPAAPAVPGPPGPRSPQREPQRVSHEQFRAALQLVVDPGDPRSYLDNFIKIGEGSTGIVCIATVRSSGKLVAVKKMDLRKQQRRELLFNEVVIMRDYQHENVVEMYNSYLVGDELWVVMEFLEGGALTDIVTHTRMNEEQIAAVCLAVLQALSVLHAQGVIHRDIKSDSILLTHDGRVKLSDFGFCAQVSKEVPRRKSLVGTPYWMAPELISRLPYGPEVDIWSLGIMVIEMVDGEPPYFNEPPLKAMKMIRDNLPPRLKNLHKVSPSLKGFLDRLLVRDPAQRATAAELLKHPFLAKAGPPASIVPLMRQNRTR
T7 sequence (Q16539 whole entry): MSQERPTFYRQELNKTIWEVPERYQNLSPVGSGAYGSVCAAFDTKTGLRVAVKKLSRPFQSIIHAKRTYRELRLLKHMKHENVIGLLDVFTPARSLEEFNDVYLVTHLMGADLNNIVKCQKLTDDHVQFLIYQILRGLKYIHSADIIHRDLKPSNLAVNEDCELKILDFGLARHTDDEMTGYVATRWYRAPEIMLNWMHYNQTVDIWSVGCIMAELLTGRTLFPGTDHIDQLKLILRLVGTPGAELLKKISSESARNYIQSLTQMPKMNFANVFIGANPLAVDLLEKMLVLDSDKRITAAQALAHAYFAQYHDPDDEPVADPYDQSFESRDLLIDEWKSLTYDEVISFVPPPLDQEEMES

On to `Cc1ncsc1-c1ccc([C@H](C)NC(=O)[C@@H]2C[C@@H](O)CN2C(=O)[C@@H](NC(=O)CNC(=O)c2ccc(F)c(-c3ccc(N4C[C@@H](C)N(C)[C@@H](C)C4)c(NC(=O)c4c[nH]c(=O)cc4C(F)(F)F)c3)c2)C(C)(C)C)cc1` [MS67], for which the remaining activity at 10 µM was 95.8% at DOT1L (setting [1]); 92.3% on DOT1L (setting [2]); 99.7% on SET7/9 (setting [1]); 92% on SET7/9 (setting [2]); 93% on NSD2 (setting [1]); 107% on NSD2 (setting [2]). Besides, the inhibition at 1 µM at Pim-2, against PKBα, at CDK2/cyclinA, against PAK4, at TRKA and at IKKα was less than 10% in each case. The inhibition at 1 µM at SAPK2a and on CDK1/cyclinB was less than 10% in each case.

(Values after publication PMC8500670, “A selective WDR5 degrader inhibits acute myeloid leukemia in patient-derived mouse models” (Science translational medicine, 2021).)
